Measured values from ChEMBL document CHEMBL4725469, “Hydrogen Peroxide Inducible JAK3 Covalent Inhibitor: Prodrug for the Treatment of RA with Enhanced Safety Profile” (ACS Med Chem Lett, 2020).
Calls of active or inactive are those of the source. The calls are words filed in the database; no cut-off is given here.

How the values were obtained:
[1] = molecular target: T1, Tyrosine-protein kinase JAK3 (Mus musculus) (UniProt Q62137); assay: Inhibition of JAK3 in mouse BaF3/TEL-JAK3 cells assessed as effect on STAT5 phosphorylation at 0.125 to 2 uM by Western blot analysis; assay type: cell-based; settings: dose microM 0.125-2
T1 sequence (whole entry): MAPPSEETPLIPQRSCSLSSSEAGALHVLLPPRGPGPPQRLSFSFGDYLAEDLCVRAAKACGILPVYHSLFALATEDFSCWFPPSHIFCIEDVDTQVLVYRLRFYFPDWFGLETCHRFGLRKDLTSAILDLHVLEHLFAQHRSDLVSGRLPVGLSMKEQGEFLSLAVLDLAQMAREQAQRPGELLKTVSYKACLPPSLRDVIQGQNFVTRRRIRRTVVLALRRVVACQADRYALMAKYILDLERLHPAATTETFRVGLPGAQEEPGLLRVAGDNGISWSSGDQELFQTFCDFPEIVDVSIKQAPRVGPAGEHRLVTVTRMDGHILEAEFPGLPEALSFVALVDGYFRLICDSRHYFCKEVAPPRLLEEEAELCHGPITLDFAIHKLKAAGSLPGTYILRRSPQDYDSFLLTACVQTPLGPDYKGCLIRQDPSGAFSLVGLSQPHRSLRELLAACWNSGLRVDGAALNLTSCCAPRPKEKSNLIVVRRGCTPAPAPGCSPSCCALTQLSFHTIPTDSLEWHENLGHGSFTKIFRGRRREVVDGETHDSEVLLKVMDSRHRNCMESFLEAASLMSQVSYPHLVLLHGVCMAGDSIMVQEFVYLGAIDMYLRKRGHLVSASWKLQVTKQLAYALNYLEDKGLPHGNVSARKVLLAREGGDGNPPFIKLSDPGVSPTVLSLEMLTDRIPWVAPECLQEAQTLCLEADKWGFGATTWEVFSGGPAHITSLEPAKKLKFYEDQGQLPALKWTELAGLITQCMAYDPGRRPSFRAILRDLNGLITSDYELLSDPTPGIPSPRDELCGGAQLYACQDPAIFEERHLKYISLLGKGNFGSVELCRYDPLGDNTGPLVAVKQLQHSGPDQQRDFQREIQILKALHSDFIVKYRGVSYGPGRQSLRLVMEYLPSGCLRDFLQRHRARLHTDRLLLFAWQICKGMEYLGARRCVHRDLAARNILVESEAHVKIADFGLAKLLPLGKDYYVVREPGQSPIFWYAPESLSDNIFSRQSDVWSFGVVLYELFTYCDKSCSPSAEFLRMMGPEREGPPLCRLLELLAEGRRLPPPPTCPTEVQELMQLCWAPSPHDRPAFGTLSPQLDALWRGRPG

[2] = Tmax in Sprague-Dawley rat at 20 mg/kg, ip measured for 0.8 to 24 hrs by LC-MS/MS analysis; assay type: ADME, organism-based; settings: in vivo, time 0.8-24 hrs
[3] = Aqueous solubility of compound at pH 7.4; assay type: physicochemical; settings: buffer
[4] = molecular target: T1, Tyrosine-protein kinase JAK3 (Mus musculus); assay: Inhibition of JAK3 in mouse BaF3/TEL-JAK3 cells assessed as effect on STAT3 phosphorylation at 0.125 to 2 uM by Western blot analysis; assay type: cell-based; settings: dose microM 0.125-2
[5] = Dissociation constant, pKa of the compound; assay type: physicochemical
Mus musculus [6] = assay: Antiarthritic activity in collagen/complete freund's adjuvant-induced rheumatoid arthritis DBA/1J mouse model assessed as inhibition of feet swelling at 10 mg/kg, ip administered for 14 days by H and E staining based analysis; assay type: functional, organism-based; settings: time 14.0 day
[7] = Permeability of compound at pH 7.4 by PAMPA assay; assay type: ADME; settings: read-out: permeability
[8] = Drug level in ankle joint of collagen/complete freund's adjuvant-induced rheumatoid arthritis DBA/1J mouse model at 20 mg/kg, ip by LC-MS/MS analysis; assay type: ADME, organism-based; settings: in vivo, read-out: Ct
[9] = Apparent volume of distribution in Sprague-Dawley rat at 20 mg/kg, ip measured for 0.8 to 24 hrs by LC-MS/MS analysis; assay type: ADME, organism-based; settings: in vivo, time 0.8-24 hrs
[10] = AUC in Sprague-Dawley rat at 20 mg/kg, ip measured for 0.8 to 24 hrs by LC-MS/MS analysis; assay type: ADME, organism-based; parameters: route intraperitoneal, dose 20 mg/kg, time 0.8-24; settings: in vivo
[11] = Toxicity in ICR mouse assessed as effect on body weight at 100 mg/kg, ip administered for 14 days; assay type: organism-based; settings: in vivo, 336 h, time 14 day
[12] = Apparent clearance in Sprague-Dawley rat at 20 mg/kg, ip measured for 0.8 to 24 hrs by LC-MS/MS analysis; assay type: ADME, organism-based; settings: in vivo, time 0.8-24 hrs
[13] = Toxicity in ICR mouse assessed as inflammatory inflammation in lungs at 100 mg/kg, ip administered for 14 days; assay type: organism-based; settings: in vivo, 336 h, time 14 day
[14] = Toxicity in ICR mouse assessed as increase in spleen weight at 100 mg/kg, ip administered for 14 days; assay type: organism-based; settings: in vivo, 336 h, time 14 day
[15] = Toxicity in ICR mouse assessed as inflammatory inflammation in heart at 100 mg/kg, ip administered for 14 days; assay type: organism-based; settings: in vivo, 336 h, time 14 day
[16] = Toxicity in ICR mouse assessed as increase in liver weight at 100 mg/kg, ip administered for 14 days; assay type: organism-based; settings: in vivo, 336 h, time 14 day
[17] = MRT (0 to infinity) in Sprague-Dawley rat at 20 mg/kg, ip measured for 0.8 to 24 hrs by LC-MS/MS analysis; assay type: ADME, organism-based; settings: in vivo, time 0.8-24 hrs
[18] = Half life in Sprague-Dawley rat at 20 mg/kg, ip measured for 0.8 to 24 hrs by LC-MS/MS analysis; assay type: ADME, organism-based; settings: in vivo, time 0.8-24 hrs
[19] = Cmax in Sprague-Dawley rat at 20 mg/kg, ip measured for 0.8 to 24 hrs by LC-MS/MS analysis; assay type: ADME, organism-based; parameters: route intraperitoneal, dose 20 mg/kg, time 0.8-24; settings: in vivo
Mus musculus [20] = assay: Antiarthritic activity in ip dosed collagen/complete freund's adjuvant-induced rheumatoid arthritis DBA/1J mouse model assessed as reduction in IL-2 level in serum administered for 14 days by ELISA; assay type: functional, organism-based; settings: dose mg/kg 5-20, time 14.0 day
Mus musculus [21] = assay: In vivo inhibition of JAK3 in collagen/complete freund's adjuvant-induced rheumatoid arthritis DBA/1J mouse model assessed as effect on STAT5 phosphorylation in heart at 20 mg/kg, ip administered for 14 days by Western blot analysis; assay type: functional, organism-based; settings: time 14.0 day
Mus musculus [22] = assay: In vivo inhibition of JAK3 in collagen/complete freund's adjuvant-induced rheumatoid arthritis DBA/1J mouse model assessed as effect on STAT5 phosphorylation in lung at 20 mg/kg, ip administered for 14 days by Western blot analysis; assay type: functional, organism-based; settings: time 14.0 day
[23] = Stability in simulated intestinal fluid incubated for 0.25 to 24 hrs by RP-UPLC-UV analysis
Mus musculus [24] = assay: In vivo inhibition of JAK3 in collagen/complete freund's adjuvant-induced rheumatoid arthritis DBA/1J mouse model assessed as effect on STAT5 phosphorylation in kidney at 20 mg/kg, ip administered for 14 days by Western blot analysis; assay type: functional, organism-based; settings: time 14.0 day
[25] = Prodrug activation in DMSO assessed as H2O2 mediated prodrug release after 4 hrs in presence of 0.1 uM H2O2 after 4 hrs by RP-HPLC-UV analysis
Mus musculus [26] = assay: In vivo inhibition of JAK3 in collagen/complete freund's adjuvant-induced rheumatoid arthritis DBA/1J mouse model assessed as effect on STAT5 phosphorylation in spleen at 20 mg/kg, ip administered for 14 days by Western blot analysis; assay type: functional, organism-based; settings: time 14.0 day
Mus musculus [27] = assay: Antiarthritic activity in DBA/1J mouse model assessed as effect on collagen/complete freund's adjuvant-induced eroded synovial cells in ankle joints at 20 mg/kg, ip administered for 14 days by H and E staining analysis; assay type: functional, organism-based; settings: time 14.0 day
[28] = Stability in human plasma at 20 uM after 0.25 to 24 hrs by RP-UPLC-UV analysis; assay type: ADME, cell-free; settings: time 0.25-24 hrs, read-out: Stabilty
Mus musculus [29] = assay: Antiarthritic activity in ip dosed collagen/complete freund's adjuvant-induced rheumatoid arthritis DBA/1J mouse model assessed as reduction in G-CSF level in serum administered for 14 days by ELISA; assay type: functional, organism-based; settings: dose mg/kg 5-20, time 14.0 day
[30] = Stability in simulated gastric fluid measured after 0.25 to 24 hrs by RP-UPLC-UV analysis
[31] = Stability in phosphate buffer saline at pH 7.4 after 0.25 to 24 hrs by RP-UPLC-UV analysis; assay type: physicochemical; settings: time 0.25-24 hrs
Mus musculus [32] = assay: Antiarthritic activity in ip dosed collagen/complete freund's adjuvant-induced rheumatoid arthritis DBA/1J mouse model assessed as inhibition of feet swelling administered for 14 days by H and E staining based analysis; assay type: functional, organism-based; settings: dose mg/kg 5-20, time 14.0 day
Mus musculus [33] = assay: Antiarthritic activity in DBA/1J mouse model assessed as effect on collagen/complete freund's adjuvant-induced disordered synovial cells in ankle joints at 20 mg/kg, ip administered for 14 days by H and E staining analysis; assay type: functional, organism-based; settings: time 14.0 day
[34] = Stability in mouse plasma at 20 uM after 0.25 to 24 hrs by RP-UPLC-UV analysis; assay type: ADME, cell-free; settings: time 0.25-24 hrs, read-out: Stabilty
[35] = Prodrug activation in collagen/complete freund's adjuvant-induced rheumatoid arthritis DBA/1J mouse model assessed as Z)-2-((5-(1-cyclohexyl-1,6-dihydroimidazo[4,5-d]pyrrolo[2,3-b]pyridin-2-yl)furan-2-yl)(hydroxy)methyl)-3-(dimethylamino)-3-((4-(4,4,5,5-tetramethyl-1,3,2-dioxaborolan-2-yl)benzyl)oxy)acrylonitrile level in ankle joint at […], ip by LC-MS/MS analysis; assay type: organism-based; settings: in vivo, 20 mg/kg, read-out: Ct
Mus musculus [36] = assay: Antiarthritic activity in DBA/1J mouse model assessed as effect on collagen/complete freund's adjuvant-induced synovial hyperplasia at 20 mg/kg, ip administered for 14 days by H and E staining analysis; assay type: functional, organism-based; settings: time 14.0 day
Mus musculus [37] = assay: Antiarthritic activity in ip dosed collagen/complete freund's adjuvant-induced rheumatoid arthritis DBA/1J mouse model assessed as reduction in serum amyloid A level administered for 14 days by ELISA; assay type: functional, organism-based; settings: dose mg/kg 5-20, time 14.0 day
Mus musculus [38] = assay: In vivo inhibition of JAK3 in collagen/complete freund's adjuvant-induced rheumatoid arthritis DBA/1J mouse model assessed as effect on STAT5 phosphorylation in liver at 20 mg/kg, ip administered for 14 days by Western blot analysis; assay type: functional, organism-based; settings: time 14.0 day
Mus musculus [39] = assay: Antiarthritic activity in collagen/complete freund's adjuvant-induced rheumatoid arthritis DBA/1J mouse model assessed as inhibition of feet swelling at 20 mg/kg, ip administered for 14 days by H and E staining based analysis; assay type: functional, organism-based; settings: time 14.0 day

Row | inhibition [1] | Tmax [2] [h] | solubility [3] [mg/kg] | inhibition [4] | pKa [5] | Papp [7] [×10⁻⁶ cm/s] | concentration [8] [nM] | Vz [9] [L/kg] | AUC [10] [µg·h/mL] | CL(app) [12] [mL/min/kg] | MRT inf [17] [h] | t1/2 [18] [h] | Cmax [19] [ng/mL] | SMILES | Activity [11] | Activity [14] | Activity [16] | further results
1 | Active | 0.17 | 0.719 | Active | 10.1 | 14.7 | 1070 | 27.96 | 331.91 | 100 | 3.84 | 2.36 | 455.37 | CN(C)C(=O)/C(C#N)=C/c1ccc(-c2nc3cnc4[nH]ccc4c3n2C2CCCCC2)o1 | Toxic | Toxic | Toxic | inhibition (Mus musculus [6]): Active; Activity [13]: Toxic; Activity [15]: Toxic
2 | Active | 0.25 | 0.011 | Active | 10.7 | 56.4 | 290 | 8.7 | 963.5 | 35 | 2.38 | 2.92 | 983.33 | CN(C)/C(OCc1ccc(B2OC(C)(C)C(C)(C)O2)cc1)=C(\C#N)C(O)c1ccc(-c2nc3cnc4[nH]ccc4c3n2C2CCCCC2)o1 (stereo not given) | Non-Toxic | Non-Toxic | Non-Toxic | Activity (Mus musculus [20]): Active; inhibition (Mus musculus [21]): inactive; inhibition (Mus musculus [22]): inactive; Stability [23]: > 95%; inhibition (Mus musculus [24]): inactive; Drug metabolism [25]: Not Active; inhibition (Mus musculus [26]): inactive; Activity (Mus musculus [27]): Active; remaining at 20 µM [28]: > 95%; Activity (Mus musculus [29]): Active; Stability [30]: > 95%; Stabilty [31]: > 95%; inhibition (Mus musculus [32]): Dose-dependent effect; Activity (Mus musculus [33]): Active; remaining at 20 µM [34]: > 95%; concentration [35]: 1130 nM; Activity (Mus musculus [36]): Active; Activity (Mus musculus [37]): Active; inhibition (Mus musculus [38]): inactive; inhibition (Mus musculus [39]): Active
